Test systems include U251 CNS; LOX IMVI melanoma; 786-0 renal; COLO 205 colon; SR leukemia; RPMI-8226 leukemia; CAKI-1 renal; SF-295 CNS; SF-268 CNS; EKVX NSCLC.
What all share (test): NCI anticancer screen, dose series, 48 h

Among the data in PubChem BioAssay (NCI) are GI50 and TGI values, retold here.

Values joined by “and” are separate entries in the source; they are usually repeats but may differ in a detail not shown here. Equal entries are not always repeated.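 These data come from cells grown in 96-well plates and exposed to compound for 48 hours at five concentrations. Here, GI50 denotes the concentration required for 50% inhibition of growth. TGI is the concentration that stops growth completely.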

For `CN1CCCCC1CCN1c2ccccc2Sc2ccc(Br)cc21` (centres undefined), the GI50 in the test on U251 CNS is 2.13 µM; in the test on LOX IMVI melanoma it was 1.99 µM; in the test with 786-0 renal, 2.14 µM; in the test on COLO 205 colon, 2.04 µM; in the test on SR leukemia it was 3.12 µM; in the test with RPMI-8226 leukemia, 2.24 µM. In addition, the results for the GI50 with CAKI-1 renal, in the test with SF-295 CNS and in the test on SF-268 CNS were 2.97 µM, 2.13 µM and 2.44 µM, respectively. For the same molecule, the TGI in the test with U251 CNS is 4.66 µM; in the test on LOX IMVI melanoma it was 3.91 µM; in the test on 786-0 renal, 4.79 µM; in the test with COLO 205 colon, 4.2 µM; with SR leukemia, 8.24 µM; in the test on RPMI-8226 leukemia it was 5.49 µM. In addition, the TGI with CAKI-1 renal is 10.9 µM; in the test with SF-295 CNS it was 4.94 µM; with SF-268 CNS it was 6.61 µM.

On to `CC(C)(Oc1ccc(-c2cccc3ccccc23)cc1)C(=O)O`, for which the TGI with U251 CNS, in the test on 786-0 renal, in the test on COLO 205 colon, in the test on SR leukemia, in the test with RPMI-8226 leukemia and in the test with EKVX NSCLC was above 100 µM in each case. Moreover, the TGI in the test with CAKI-1 renal, with SF-295 CNS and in the test on SF-268 CNS was above 100 µM each time.

In the case of `O=C(Nc1ccn(C2CC(O)C(COC(c3ccccc3)(c3ccccc3)c3ccccc3)O2)c(=O)n1)c1ccccc1` (centres undefined), the TGI in the test on U251 CNS stood at 11.4 µM; with 786-0 renal, 3.51 µM; in the test with COLO 205 colon, 4.07 µM; in the test with SR leukemia, 5.34 µM; with RPMI-8226 leukemia it was 5.2 µM; in the test on EKVX NSCLC, 16.2 µM. In addition, the TGI in the test on CAKI-1 renal was 18.4 µM; in the test with SF-295 CNS, 3.55 µM; in the test on SF-268 CNS, 20 µM.

As to `COc1cccc(C2CC(=O)Nc3c2c(C)nn3-c2nc3ccccc3[nH]2)c1OC` (centres undefined), the GI50 in the test on U251 CNS was 3.63 µM; with LOX IMVI melanoma it was 3.65 µM; with 786-0 renal, 5.51 µM; in the test on COLO 205 colon it was 5.72 µM; in the test with SR leukemia, 4.22 µM; in the test on RPMI-8226 leukemia, 3.21 µM. Besides, the GI50 is 3 µM in the test with CAKI-1 renal, 1.37 µM with SF-295 CNS and 4.92 µM in the test with SF-268 CNS. Also, the TGI with U251 CNS was 20.3 µM; in the test with LOX IMVI melanoma, 12.9 µM; in the test with 786-0 renal it was 65 µM; in the test with COLO 205 colon, 20.1 µM; with SR leukemia, above 40.9 µM; with RPMI-8226 leukemia it was 10.6 µM. In addition, the values for the TGI with CAKI-1 renal, in the test on SF-295 CNS and in the test with SF-268 CNS were 19.7 µM, 3.78 µM and 61.3 µM, respectively.

Turning to `COc1ccc(-c2nsc3c2NC(=O)CC3c2ccsc2)cc1` (centres undefined), the GI50 in the test with U251 CNS was 0.299 µM; with LOX IMVI melanoma, 0.422 µM; with 786-0 renal, 1.25 µM; in the test on COLO 205 colon, 0.11 µM; with SR leukemia, 0.0384 µM; with RPMI-8226 leukemia, 0.279 µM. The GI50 in the test on CAKI-1 renal is 0.298 µM; with SF-295 CNS it was 0.211 µM; in the test on SF-268 CNS, 1.34 µM. The TGI in the test on U251 CNS was above 100 µM; with LOX IMVI melanoma, above 100 µM; in the test with 786-0 renal it was above 100 µM; in the test on COLO 205 colon, 0.846 µM; with SR leukemia it was above 100 µM; in the test on RPMI-8226 leukemia, 21 µM. The figures for the TGI in the test on CAKI-1 renal, in the test on SF-295 CNS and in the test with SF-268 CNS were above 100 µM, above 51.5 µM and above 100 µM, respectively.

On to `O=C(/C=C/c1ccc(O)c(O)c1)N1CCN(c2ccc(Cl)cc2)CC1`, for which the GI50 in the test on U251 CNS was 5 µM; in the test on LOX IMVI melanoma it was 7.35 µM; in the test on 786-0 renal, 9.39 µM; in the test with COLO 205 colon, 5.11 µM; in the test on SR leukemia, 3.94 µM; in the test on RPMI-8226 leukemia, 2.87 µM. Further, the results for the GI50 in the test on CAKI-1 renal, in the test on SF-295 CNS and in the test on SF-268 CNS were 4.71 µM, 19.1 µM and 4.92 µM, respectively. Also, the TGI stood at 23.3 µM in the test on U251 CNS; 21.6 µM in the test on LOX IMVI melanoma; 37 µM with 786-0 renal; 19.7 µM with COLO 205 colon; 34 µM in the test with SR leukemia; 29.7 µM in the test on RPMI-8226 leukemia. Moreover, the TGI with CAKI-1 renal is 48 µM; in the test on SF-295 CNS, above 100 µM; in the test on SF-268 CNS it was 42.6 µM.

In the case of `COc1cc(-c2nc(-c3ccccc3)c(-c3ccccc3)[nH]2)cc(OC)c1O`, the GI50 in the test with U251 CNS was 16.3 µM; in the test on LOX IMVI melanoma it was 17.2 µM; with 786-0 renal it was 19.9 µM; in the test with COLO 205 colon, 19.6 µM; in the test on SR leukemia, 13.6 µM; in the test on RPMI-8226 leukemia it was 24.1 µM. Also, the results for the GI50 in the test on CAKI-1 renal, in the test on SF-295 CNS and in the test with SF-268 CNS were 20.5 µM, 17.1 µM and 20.1 µM, respectively. Moreover, the TGI in the test on U251 CNS came out at 33.2 µM; with LOX IMVI melanoma, 32.6 µM; in the test with 786-0 renal it was 44 µM; with COLO 205 colon it was 36.4 µM; in the test on SR leukemia it was 51.7 µM; with RPMI-8226 leukemia it was 83 µM. The TGI in the test with CAKI-1 renal came out at 55.2 µM; in the test on SF-295 CNS, 45.5 µM; with SF-268 CNS, 44.1 µM.

Consider `Fc1ccccc1CN1COc2c(cc(Cl)c3cccnc23)C1`, for which the TGI in the test with U251 CNS is 12.8 µM; in the test on 786-0 renal it was 21.5 µM; in the test on COLO 205 colon it was 28.3 µM; in the test on SR leukemia it was 3.85 µM; in the test on EKVX NSCLC, 2.72 µM; with CAKI-1 renal it was 9.93 µM. The TGI in the test with SF-295 CNS is 12.1 µM; in the test on SF-268 CNS, 20.3 µM.

Regarding `COC(=O)[C@@]12OC[C@]34[C@H]([C@@H](O)[C@@H]1O)[C@@]1(C)CC(=O)C(O)=C(C)[C@@H]1C[C@H]3OC(=O)[C@H](OC(=O)/C=C(\C)C(C)C)[C@@H]24`, the TGI with U251 CNS is 0.0206 µM and 0.0657 µM; with 786-0 renal it was 0.072 µM and < 0.012 µM and 0.0429 µM; in the test on COLO 205 colon it was 0.0167 µM and 0.0586 µM; with SR leukemia, 0.0369 µM; in the test with RPMI-8226 leukemia, 0.0129 µM and < 0.0409 µM and 0.0545 µM; in the test with EKVX NSCLC, 0.0517 µM and 0.0283 µM and 0.0316 µM. The TGI in the test on CAKI-1 renal was 0.055 µM and 0.0295 µM and 0.159 µM; in the test with SF-295 CNS it was 0.0345 µM and 0.0582 µM. In addition, the GI50 in the test on 786-0 renal is 0.0217 µM.

For `O=c1ccc(N=Nc2ccccc2)ccc1O`, the TGI in the test with U251 CNS is 20.2 µM; in the test with LOX IMVI melanoma, 17.4 µM; in the test on 786-0 renal it was 58 µM; in the test on COLO 205 colon it was 31.7 µM; in the test with SR leukemia, 22.2 µM; in the test with EKVX NSCLC, 81.1 µM. The TGI in the test on CAKI-1 renal is 29.4 µM; with SF-295 CNS, 20.9 µM; with SF-268 CNS it was above 100 µM.
